In US9943500B2, “Methods of treating topical microbial infections” (LUODA PHARMA PTY LIMITED, priority 2013, dated 2018):
≈ marks a conversion by molar mass, not a printed value. Where two headings read alike, the source gives them in different places.

Columns and labels:
[1] = tested on: methicillin sensitive and methicillin-resistant staphylococci; experiment: Minimum inhibitory concentration assay, 42 Staphylococcus isolates (Example 1); format: cell-based
Description: Forty-two isolates of Staphylococcus of varying species and strain type were collected from isolate collections. Biochemical testing including coagulase, latex agglutination testing for protein A, Vogues-Proskauer tests and resistance to polymyxin B were used to identify the species of Staphylococcus. All isolates were also screened for resistance to various antimicrobials commonly used for the treatment of skin infections. This was performed using the disk diffusion method and resistance standards as outlined by the CLSI. The following antimicrobials were used: amoxicillin-clavulanic acid (30 μg), cephalothin (30 μg), clindamycin (2 μg), enrofloxacin (5 μg), erythromycin (15 μg), gentamicin (10 μg), imipenem (10 μg), oxacillin (1 μg), penicillin G (10 units), tetracycline (30 μg), 1:19 trimethoprim-sulfamethoxazole (25 μg) and vancomycin (30 μg).
Minimum inhibitory concentration tests were performed according to CLSI Standards (CLSI 2012). 90 μL of one of the test compound solutions, or ampicillin, was added to the end column of a 96 well plate that contained 90 μL of CAMHB in each well. The solutions were then serially diluted across the row, leaving 2 columns for positive and negative controls (FIG. 2). A bacterial suspension was prepared by adding fresh colonies obtained from an overnight culture on Sheep Blood Agar (SBA) to a 9.1 g/L saline solution. This suspension was adjusted to a concentration of between 4×10^8 and 5×10^8 CFU/mL. […] 1 mL of this suspension was added to 9 mL of saline before being added to all wells, excluding the negative control wells, in 10 μL volumes giving a final concentration of between 4×10^5 and 5×10^5 CFU/mL in each well. The tests were then incubated for 24 hours at 37° C. and then assessed both visually and using OD readings from a microplate reader at a wavelength of 600 nm. These tests were performed in duplicate but repeated if discrepancies were observed.
The minimum inhibitory concentration (MIC) was determined to be the lowest concentration of antibiotic that prevented growth of bacteria both visually and using OD readings. Direct statistical comparisons between the test compounds and ampicillin could not be performed in light of confidential information restrictions, such as restrictions on disclosure of information relating to the compound structure, such as molecular weight. Instead, MIC values were collated and used to determine the lowest concentration of each compound that was effective against 50% and 90% of isolates, referred to as the MIC50 and MIC90 respectively. These values as well as the range of MIC values were then used for direct comparisons between test compounds and for general comparisons with ampicillin.

[2] = cited from earlier work
[3] = tested on: 51 Australian bovine mastitis isolates, primarily S. aureus, S. agalactiae and S. uberis; experiment: Minimum inhibitory concentration assay, bovine mastitis isolates (Example 3); format: cell-based; conditions: all 51 isolates
Description: Fifty-one dairy bovine mastitis isolates, encompassing a variety of bacterial species, were isolated from milk samples collected from dairy farms in rural South Australia by the University of Adelaide Ambulatory Clinic. Cellular morphology observed from Gram stains and catalase testing was used to differentiate Staphylococcus, Streptococcus and Corynebacterium species from Gram-negative species. Further biochemical testing including coagulase, Lancefield grouping, esculin hydrolysis and CAMP tests were used to identify the isolates to species level. Where biochemical test results were not definitive in identifying species, amplification and sequencing of the 16S ribosomal RNA gene was used to confirm the identity of the isolates.
Minimum inhibitory concentration tests were performed in the manner outlined by the CLSI (CLSI 2012). Test compounds were dispensed into a 96-well microtitre tray containing 90 μl of CAMHB in 90 μl volumes and serial diluted to obtain a concentration gradient ranging from 128 μg/ml to 0.25 μg/ml (see FIG. 24). For Streptococcus species, CAMHB was replaced with a CAMHB supplement with 4% lysed-sheep blood (4% LSB:CAMHB). 4% LSB:CAMHB was prepared by mixing 5 ml sheep blood to 5 ml milliQ water, and repeated freezing at −20° C. and thawing, followed by centrifuged for 20 min at 7000 rpm. 7 ml of the supernatant was removed and added to 93 mL of CAMB.
Bacterial suspensions were prepared by emulsifying fresh colonies obtained from an overnight culture on Sheep Blood Agar (SBA) in 4 mls of 9.1 g/l physiological saline to an optical density read at 600 nm (OD600 nm) between 1.00 and 1.20. Standardised bacterial suspensions were diluted 1:10 in physiological saline and dispensed into all wells, excluding the negative control wells, in 10 μL volumes giving a final concentration of between 4×10^5 and 5×10^5 CFU/mL in each well. 96-well microtitre trays were incubated for 24 hours at 37° C. in 5% CO2 and then assessed both visually and using OD readings from a microplate reader at a wavelength of 600 nm. These tests were performed in duplicate and repeated if discrepancies in MIC values were observed between replicates.
The minimum inhibitory concentration (MIC) was determined to be the lowest concentration of antibiotic that prevented growth of bacteria both visually and using OD readings. MIC values were collated and used to determine the lowest concentration of each compound effective against 50% and 90% of isolates, known as the MIC50 and MIC90 respectively. These values as well as the range of MIC values were then used for direct comparisons between test compounds and for general comparisons with ampicillin.

[4] = tested on: methicillin-sensitive and methicillin-resistant strains of Staphylococcus; experiment: Minimum bactericidal concentration determination, Staphylococcus isolates (Example 1); conditions: for bactericidal activity (MBC testing): lower concentrations; for strain type for which bactericidal activity was more consistent: methicillin-sensitive versus methicillin-resistant strains
Description: Following determination of the MIC using the 96 well MIC plate, a variation of the drop plate method was used to determine minimum bactericidal concentration (MBC) for each of the test compounds. These were analysed using samples taken from the MIC plate following incubation. […] Each concentration was pipetted in duplicate with duplicates being pipetted on an inner ring of drops. The plates were incubated at 37° C. overnight and assessed the following day for growth. The MBC was defined as the concentration at which 99.9% of colonies were eradicated, which was visually assessed by a lack of growth on the agar where the drop was placed.

[5] = dogs; cited from earlier work
[6] = tested on: ATCC 49775 reference strain; experiment: Microdilution time-kill assay (optical density); conditions: 48 hour period; one, four and eight times the MIC
Description: Time-kill assays were performed according to the M26-A guidelines of the CLSI, with modifications. The test compounds and ampicillin were serial diluted in CAMHB across the rows of a 96 well plate and a bacterial suspension was prepared and added in the same manner as the MIC testing. The 96 well plates were then incubated at 37° C. for 48 hours being removed at specific time points and OD for the positive control wells as well as one, four and eight times the MIC of the compound specific to the strain being tested were assessed using a spectrophotometer at a wavelength of 600 nm. The time points assessed were 0, 1, 2, 4, 8, 12, 24 and 48 hours after the addition of the bacterial suspension to the wells. Each test compound was tested in triplicate while ampicillin was tested in duplicate and this test was independently repeated. […] One strain from each of the categories of Staphylococcus in the isolate collection (methicillin-sensitive, methicillin resistant and coagulase negative) were selected as well as the ATCC reference strain for comparison. These strains were strains MSS 1, MSS 11, MRSA 9 and the ATCC 49775 reference strain.

[7] = tested on: ATCC 49775 reference strain; experiment: Macrodilution time-kill assay (viable counts); conditions: 24 hours
Description: (§1) Due to the detection limit of the OD measurements, the time-kill assays were also performed in macrodilution. In 15 mL tubes, 9 mL volumes of the test compounds in CAMHB were prepared at one, four and eight times the MIC concentration and 9 mL volumes of ampicillin were prepared in CAMHB at one and four times the MIC. 1 mL of a 4 to 5×10^6 bacterial suspension (as prepared for MIC testing) was added to each of the tubes as well as a growth control tube containing only 9 mL of CAMHB. These tubes were incubated at 37° C. in an orbital shaker rotating at 100 rpm for 24 hours. At 0, 1, 4, 8, 12 and 24 hours after addition of the bacteria, 100 μL samples were removed from each tube and serial diluted in 9.1 g/L saline solution. The dilutions were then plated in duplicate onto plate count agar and incubated for 24 hours at 37° C. After incubation, viable counts were obtained from the number of colonies visible on the agar and these were used to calculate the number of CFU/mL at each time point. For the macrodilution time-kill analysis, only the ATCC 49775 reference strain and MRSA 9 were assessed in order to further investigate the antibacterial activity against methicillin-resistant strains. These macrodilution time-kill assays were independently repeated and bactericidal activity was defined as a ≥3 log decrease in the number of CFU/mL.

MRSA 9 = experiment: Macrodilution time-kill assay (viable counts); conditions: 24 hours
Description: as §1

Compound | MIC50 and MIC90 values compared with ampicillin [1] | MIC90 ([3]; read-out: MIC90) | bactericidal activity (MBC testing) [4] | strain type for which bactericidal activity was more consistent [4] | further results
CC[C@@H](C(=O)[C@@H](C)[C@@H](O)[C@H](C)[C@@H]1O[C@@H]([C@@H](CC)C(=O)O)CC[C@@H]1C)[C@H]1O[C@]2(C=C[C@@H](O)[C@]3(CC[C@@](C)([C@H]4CC[C@](O)(CC)[C@H](C)O4)O3)O2)[C@H](C)C[C@@H]1C [LP 1088, Salinomycin] | considerably lower than ampicillin | 2 µg/mL (≈ 2.66 µM) | some bactericidal activity in lower concentrations | more consistently for methicillin-sensitive strains | toxicity after accidental exposure ([2]; accidental inhalation and swallowing of about 1 mg/kg, human): severe acute and chronic salinomycin toxicity; acceptable daily intake (ADI) ([2]; humans, European Food Safety Authority risk assessment): 5 µg/kg; daily intake leading to neurotoxic effects (myelin loss, axonal degeneration) [5]: more than 500 μg/kg
CC[C@@H](C(=O)O)[C@@H]1O[C@@H]([C@@H](C)[C@H](O)[C@H](C)C(=O)[C@H](CC)[C@H]2O[C@]3(C=C[C@@H](O)[C@]4(CC[C@@](C)([C@H]5CC[C@](O)(CC)[C@H](C)O5)O4)O3)[C@H](C)C[C@@H]2C)[C@@H](C)C[C@@H]1C [LP 4525, Narasin] |  |  |  |  | MIC50 [3]: 0.25 µg/mL (≈ 0.327 µM); MIC90 [3]: 1 µg/mL (≈ 1.31 µM)
CO[C@@H]1[C@@H](OC)[C@H](C)[C@@](O)(CC(=O)O)O[C@H]1[C@H](C)[C@H]1O[C@@]2(CC[C@@](C)([C@H]3CC[C@@](C)([C@@H]4O[C@@H]([C@H]5O[C@](C)(O)[C@H](C)C[C@@H]5C)C[C@@H]4O[C@@H]4C[C@H](OC)[C@@H](OC)[C@H](C)O4)O3)O2)C[C@H](O)[C@H]1C [LP 6315, Maduramicin] | considerably lower than ampicillin | 4 µg/mL (≈ 4.36 µM) | some bactericidal activity in lower concentrations | more consistently for methicillin-sensitive strains | growth (optical density) compared to growth control [6]: prevented the growth; bactericidal or bacteriostatic (time-kill) ([7]; most concentrations, ATCC 49775 and MRSA 9): bacteriostatic; MBC50 rank among test compounds ([4]; methicillin-resistant isolates): lowest MBC50 values; decrease in colonies (MRSA 9; four times the MIC): > 3 log10
CC[C@@]1([C@@H]2O[C@@H]([C@H]3O[C@@](O)(CO)[C@H](C)C[C@@H]3C)C[C@@H]2C)CC[C@H]([C@]2(C)CC[C@]3(C[C@H](O)[C@@H](C)[C@@H]([C@@H](C)[C@@H](OC)[C@H](C)C(=O)O)O3)O2)O1 [LP 9666, Monensin] | considerably lower than ampicillin | 128 µg/mL (≈ 191 µM) |  |  | 
CC1(C)S[C@@H]2[C@H](NC(=O)[C@H](N)c3ccccc3)C(=O)N2[C@H]1C(=O)O [ampicillin] |  |  |  |  | decrease in the number of viable bacteria ([7]; all concentrations tested): > 3 log10; decrease in the number of viable bacteria (MRSA 9; all concentrations tested): > 3 log10
Narasin [LP 4525] | considerably lower than ampicillin |  | some bactericidal activity in lower concentrations | more consistently for methicillin-sensitive strains | 
